Data: PubChem BioAssay (NCI)
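In this assay, cells in 96-well plates receive the compound at five concentrations for 48 hours. Endpoints are linearly interpolated between the surrounding concentrations. TGI: total growth inhibition.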

How the values were obtained:
Test in all cases: inhibition of tumour cell growth, NCI panel, 48 h
[1] = tested on: UACC-62 melanoma
[2] = tested on: KM12 colon
[3] = tested on: A549 NSCLC
[4] = tested on: UACC-257 melanoma
[5] = tested on: CCRF-CEM leukemia
[6] = tested on: HT29 colon
[7] = tested on: MOLT-4 leukemia
[8] = tested on: HCT-15 colon
[9] = tested on: HCC-2998 colon
[10] = tested on: SN12C renal
[11] = tested on: SF-268 CNS
[12] = tested on: KM20L2 colon
[13] = tested on: SNB-78 CNS
[14] = tested on: K-562 leukemia
[15] = tested on: NCI-H23 lung
[16] = tested on: HOP-18 NSCLC
[17] = tested on: IGROV1 ovarian
[18] = tested on: XF 498 CNS
[19] = tested on: LOX IMVI melanoma
[20] = tested on: HL-60(TB) leukemia
[21] = tested on: SK-OV-3 ovarian
[22] = tested on: TK-10 renal
[23] = tested on: SF-539 CNS
[24] = tested on: UO-31 renal
[25] = tested on: COLO 205 colon
[26] = tested on: NCI-H522 lung
[27] = tested on: A498 renal
[28] = tested on: RXF 393 renal
[29] = tested on: DMS 273 small cell lung
[30] = tested on: SW-620 colon
[31] = tested on: RPMI-8226 leukemia
[32] = tested on: NCI-H460 lung
[33] = tested on: HOP-92 NSCLC
[34] = tested on: SNB-75 CNS
[35] = tested on: NCI-H226 lung
[36] = tested on: EKVX NSCLC
[37] = tested on: M19-MEL melanoma
[38] = tested on: U251 CNS
[39] = tested on: SK-MEL-28 melanoma
[40] = tested on: MALME-3M melanoma
[41] = tested on: SNB-19 CNS
[42] = tested on: M14 melanoma
[43] = tested on: DMS 114 small cell lung
[44] = tested on: HCT-116 colon
[45] = tested on: HOP-62 NSCLC
[46] = tested on: 786-0 renal
[47] = tested on: ACHN renal
[48] = tested on: SR leukemia
[49] = tested on: SF-295 CNS
[50] = tested on: OVCAR-4 ovarian
[51] = tested on: LXFL 529 NSCLC
[52] = tested on: OVCAR-3 ovarian
[53] = tested on: SK-MEL-2 melanoma
[54] = tested on: OVCAR-8 ovarian
[55] = tested on: DLD-1 colon

C=C1CC[C@@H]2C(C)(C)C(O)CCC2(C)C1COc1ccc2ccc(=O)oc2c1 (stereo not given in full)
TGI [1]: 29.4 µM
TGI [2]: 29.8 µM
TGI [3]: 32.6 µM
TGI [4]: 32.6 µM
TGI [5]: 49 µM
TGI [6]: 37.3 µM
TGI [7]: 39.8 µM
TGI [8]: 28.3 µM
TGI [9]: 34.8 µM
TGI [10]: 30 µM
TGI [11]: 36.7 µM
TGI [12]: 40.5 µM
TGI [13]: 39.2 µM
TGI [14]: 44.1 µM
TGI [15]: 34.6 µM
TGI [16]: 35 µM
TGI [17]: 33.5 µM
TGI [18]: 29.6 µM
TGI [19]: 32 µM
TGI [20]: 36.3 µM
TGI [21]: 55.2 µM
TGI [22]: 36.9 µM
TGI [23]: 31.3 µM
TGI [24]: 29.4 µM
TGI [25]: 28.1 µM
TGI [26]: 29.8 µM
TGI [27]: 56.8 µM
TGI [28]: 35.5 µM
TGI [29]: 27.3 µM
TGI [30]: 42.4 µM
TGI [31]: 33.8 µM
TGI [32]: 23.5 µM
TGI [33]: 35.4 µM
TGI [34]: 32.2 µM
TGI [35]: 33.3 µM
TGI [36]: 37.4 µM
TGI [37]: 32.5 µM
TGI [38]: 34.3 µM
TGI [39]: 32.2 µM
TGI [40]: 32.1 µM
TGI [41]: 37.4 µM
TGI [42]: 33.2 µM
TGI [43]: 28.2 µM
TGI [44]: 28.8 µM
TGI [45]: 33.4 µM
TGI [46]: 42.2 µM
TGI [47]: 30.5 µM
TGI [48]: 56.9 µM
TGI [49]: 29.7 µM
TGI [50]: 29.7 µM
TGI [51]: 23.7 µM
TGI [52]: 32.6 µM
TGI [53]: 32 µM
TGI [54]: 33.5 µM
TGI [55]: 34.4 µM

COc1nc(NC2OCC(O)C(O)C2O)c(NC2OCC(O)C(O)C2O)c(=O)n1C (stereo not given)
TGI [1]: > 100 µM
TGI [2]: > 100 µM
TGI [3]: > 100 µM
TGI [4]: > 100 µM
TGI [5]: > 100 µM
TGI [6]: > 100 µM
TGI [7]: > 100 µM
TGI [8]: > 100 µM
TGI [9]: > 100 µM
TGI [10]: > 100 µM
TGI [11]: > 100 µM
TGI [12]: > 100 µM
TGI [13]: > 100 µM
TGI [14]: > 100 µM
TGI [15]: > 100 µM
TGI [16]: > 100 µM
TGI [17]: > 100 µM
TGI [18]: > 100 µM
TGI [19]: > 100 µM
TGI [20]: > 100 µM
TGI [21]: > 100 µM
TGI [22]: > 100 µM
TGI [23]: > 100 µM
TGI [24]: > 100 µM
TGI [25]: > 100 µM
TGI [26]: > 100 µM
TGI [27]: > 100 µM
TGI [28]: > 100 µM
TGI [29]: > 100 µM
TGI [30]: > 100 µM
TGI [31]: > 100 µM
TGI [32]: > 100 µM
TGI [33]: > 100 µM
TGI [34]: > 100 µM
TGI [35]: > 100 µM
TGI [36]: > 100 µM
TGI [37]: > 100 µM
TGI [38]: > 100 µM
TGI [39]: > 100 µM
TGI [40]: > 100 µM
TGI [41]: > 100 µM
TGI [42]: > 100 µM
TGI [43]: > 100 µM
TGI [44]: > 100 µM
TGI [45]: > 100 µM
TGI [46]: > 100 µM
TGI [47]: > 100 µM
TGI [48]: > 100 µM
TGI [49]: > 100 µM
TGI [50]: > 100 µM
TGI [51]: > 100 µM
TGI [52]: > 100 µM
TGI [53]: > 100 µM
TGI [54]: > 100 µM
TGI [55]: > 100 µM
